Experimental data: patent US12178800B2, “Sulforaphane-melatonin-like compound” (priority 2018, dated 2024)

How the values were obtained:
mouse tongues [1] = experiment: Histopathology (H&E) of tongue specimens after X-ray irradiation; format: in vivo, ICR mice; settings: 12 days post-irradiation
mouse tongues [2] = experiment: TUNEL staining of tongue sections (apoptosis); format: in vivo, ICR mice; settings: 12 days post-irradiation, control 23.7%
Description: The scoring of oral mucositis was based on a modification of the method of Sonis et al. To assess the severity of oral mucositis, mice were anesthetized with isoflurane every day. The oral mucositis score was: 0=normal; 1=partial hyperemia, erythema and swelling; 2=overall hyperemia, erythema and swelling; 3=epidermolysis, hyperemia and erythema; 4=extensive epidermolysis and bleeding; 5=bleeding and abscesses. Myeloperoxidase (MPO) activity is a marker for neutrophils in inflamed tissue. MPO activity was measured in mouse tongues using a modification of the method of Chen et al. After mice had been killed by cervical dislocation 12 days after irradiation, tongue samples (n=10 per group) were removed and stored at −70° C. until required for assay. […] MPO activity was measured using a Microplate Reader (NJ-2300; Biotec, Tokyo, Japan) at 450 nm. MPO activity was calculated by measuring the slope of absorbance calibrated using MPO standards (Wako Biochemicals) and expressed as MPO/g tongue. […] TBARS levels were measured using the Microplate Reader (Biotec) at 540 nm. TBARS levels were calculated by measuring the slope of absorbance calibrated using TBARS standards and expressed as TBARS/g tongue. […] The number of TUNEL-positive cells on the tongue tips were counted and expressed as a percentage. […] Data were analyzed using one-way analysis of variance (ANOVA) followed by the Steel-Dwass test. […]

For `COc1cc2c(CCCCN=C=S)c[nH]c2cc1O` [6OHM-6-HITC], the “degree of epidermolysis of the tongue” value (mouse tongues [1]) was “preserved”, the “infiltration of inflammatory cells” value (mouse tongues [1]) was “decreased” and the “percentage of TUNEL-positive cells” value (mouse tongues [2]; 30 mg/kg i.p.) was 9.9%. For the same compound, the “percentage of TUNEL-positive cells” value (mouse tongues [2]; 300 mg/kg i.p.) was 8.6%.
